# Measured values from patent US10632135B2, “Orally available compounds, a process for preparing the same and their uses as anti-adhesive drugs for treating E. coli induced inflammatory bowel diseases such as crohn's disease” (CENTRE NATIONAL DE LA RECHERCHE SCIENTIFIQUE, priority 2014, dated 2020).
# What was measured:
# [1] = test system: Adherent-Invasive E. coli strain LF82 adhesion to intestinal epithelial cells T84; assay: Adhesion of Adherent-Invasive E. coli LF82 to intestinal epithelial cells T84 in presence of monovalent compounds (pre-, co- and post-incubation); assay type: cell-based
# Experimental: E. coli strain LF82 was isolated from a chronic ileal lesion of a patient with Crohn's disease (CD). Bacteria were grown routinely in Luria-Bertani (LB) broth overnight at 37° C. Intestinal epithelial cells T84 derived from colonic adenocarcinoma were maintained in an atmosphere containing 5% CO2 at 37° C. in DMEM/F12 (50/50) medium supplemented with 10% (v/v) heat-inactivated fetal calf serum (FCS), 1% L-glutamine, 100 000 U·l^−1 penicillin, 100 mg·l^−1 streptomycin, 25 μg·l^−1 amphotericin B.
# T84 were seeded in 48-well plates at a concentration of 1.5×10^5 cells per well and grown for 48 h. AIEC LF82 bacteria were incubated 1 h with monovalent compounds prior the cell infection (pre-incubation protocol) or they were added simultaneously onto the cells (co-incubation protocol) in complete medium without antibiotics, containing heat inactivated fetal calf serum (FCS). Monovalent compound 10 was tested at a dose of 100; 10; 1 (and 0.1) μM, compound 5 was tested at a dose of 500; 100; 10 and 1 μM and D-mannose was tested at a dose of 10 000; 1 000; 100 or 10 μM. Cells were infected with AIEC LF82 bacteria at a multiplicity of infection (MOI) of 10 bacteria per cell for 3 h at 37° C.
# For the post-incubation protocol, monovalent compounds (same doses than in the pre- and co-incubation assays) were incubated with cells for 3 h after bacterial infection. A washing step was realized before this post-incubation to eliminate non-adherent bacteria.
# Monolayers were washed in phosphate-buffered saline (PBS; pH 7.2) and cells were then lysed with 1% Triton X-100 in deionized water. […] Results were expressed as percentages of residual adhesion, considering adhesion level of AIEC LF82 without mannosides treatment as 100%.
# D-mannose, compounds 5 and 10 were assessed as putative inhibitors to compete the interaction of CEACAM6 expressed by T84 intestinal epithelial cells with the adhesin FimH of AIEC bacteria following three different protocols: pre-, co- and post-incubation experiments (FIG. 1).
# [2] = test system: HUV-EC-C, CCD-18Co, MRC-5 and PWR-1E normal cell lines; assay type: cell-based, Human
# Experimental: Compounds 10 and 22′ were extemporaneously dissolved at 100 mM in water to obtain a stock solution.
# The final concentrations of compounds 10 and 22′ were 100 nM, 1 μM, 10 μM, 100 μM and 1 mM within wells.
# The 4 cell lines were plated at optimal density per well in 96-well plates. Plates were incubated at 37° C. for 24 hours before treatment, in drug-free culture medium.
# Cell lines were then incubated for 96 hours at 37° C. under 5% CO2 with the 5 concentrations of compounds 10 or 22′ in 1:10 dilution steps. Each concentration was done in triplicate. Control cells were treated with vehicle alone (water).
# The dose response for index of cytotoxicity (IC) is expressed as following: […]
# IC50 represents the drug concentration required to obtain 50% of cellular cytotoxicity. The
# IC50 determination values were calculated from semi-log curves.
Structure (SMILES),"concentration at which a significant decrease in the bacterial adhesion level was obtained ([1]; co-incubation protocol, LF82 MOI 10, 3 h, T84 cells)",dose at which adhesion was decreased ([1]; post-incubation protocol),concentration showing a significant inhibitory effect on the bacterial adhesion ([1]; pre-incubation protocol (bacteria incubated 1 h with compound before infection)),cytotoxicity values of the control compound [2]
O=C[C@@H](O)[C@@H](O)[C@H](O)[C@H](O)CO [D-mannose],1 000 μM,10 mM,100 µM,
CC(=O)O[C@@]12CO[C@@H]1C[C@H](O)[C@@]1(C)C(=O)[C@H](O)C3=C(C)[C@@H](OC(=O)[C@H](O)[C@@H](NC(=O)OC(C)(C)C)c4ccccc4)C[C@@](O)([C@@H](OC(=O)c4ccccc4)[C@H]21)C3(C)C [Docetaxel],,,,consistent with known values of inherent toxicity
